According to PubChem BioAssay (NCI):
Values joined by “and” are separate entries in the source; they are usually repeats but may differ in a detail not shown here. Equal entries are not always repeated.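 Method: 48-hour compound exposure of cells in 96-well plates, five concentrations, linear interpolation of endpoints. GI50 marks 50% less growth. Definition used: TGI = concentration required for complete inhibition of growth.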

How the values were obtained:
Assay in all cases: inhibition of tumour cell growth, NCI panel, 48 h
[1] = tested on: MDA-MB-468 breast
[2] = tested on: SF-539 CNS
[3] = tested on: CAKI-1 renal
[4] = tested on: NCI-H23 lung
[5] = tested on: SF-268 CNS
[6] = tested on: OVCAR-5 ovarian
[7] = tested on: IGROV1 ovarian
[8] = tested on: SNB-75 CNS
[9] = tested on: KM12 colon
[10] = tested on: SNB-19 CNS
[11] = tested on: MDA-MB-231 breast
[12] = tested on: OVCAR-4 ovarian
[13] = tested on: SK-MEL-5 melanoma
[14] = tested on: RXF 393 renal
[15] = tested on: UACC-257 melanoma
[16] = tested on: NCI/ADR-RES ovarian
[17] = tested on: MALME-3M melanoma
[18] = tested on: A498 renal
[19] = tested on: SK-MEL-28 melanoma
[20] = tested on: SN12C renal
[21] = tested on: TK-10 renal
[22] = tested on: SK-OV-3 ovarian
[23] = tested on: OVCAR-8 ovarian
[24] = tested on: HCT-15 colon
[25] = tested on: NCI-H226 lung
[26] = tested on: OVCAR-3 ovarian
[27] = tested on: UACC-62 melanoma
[28] = tested on: HOP-62 NSCLC
[29] = tested on: NCI-H522 lung
[30] = tested on: 786-0 renal
[31] = tested on: CCRF-CEM leukemia
[32] = tested on: PC-3 prostate
[33] = tested on: ACHN renal
[34] = tested on: DU-145 prostate
[35] = tested on: SF-295 CNS
[36] = tested on: HL-60(TB) leukemia
[37] = tested on: BT-549 breast
[38] = tested on: HT29 colon
[39] = tested on: UO-31 renal
[40] = tested on: MDA-MB-435
[41] = tested on: EKVX NSCLC
[42] = tested on: HOP-92 NSCLC
[43] = tested on: SK-MEL-2 melanoma
[44] = tested on: LOX IMVI melanoma
[45] = tested on: HS 578T breast
[46] = tested on: COLO 205 colon
[47] = tested on: HCC-2998 colon

SMILES: COc1ccc(S(=O)(=O)N2CCCCC2)cc1NC(=O)c1[nH]c(C)c2c1CCCCC2=O
- GI50 [1]: 0.468 µM
- TGI [1]: 3.9 µM

SMILES: CN([N-]C(=O)CC(=O)[N-]N(C)C(=S)c1ccccc1)C(=S)c1ccccc1.[Cu+2]
- GI50 [1]: < 0.01 µM
- TGI [1]: 0.0386 µM

SMILES: COc1cccc2c1C(=O)c1c(O)c3c(c(O)c1C2=O)C[C@@](O)(C(=O)COC(=O)c1cccnc1)C[C@@H]3OC1CC(N)C(O)C(C)O1 (stereo partly specified)
- GI50 [1]: 0.136 µM
- TGI [1]: 0.465 µM

SMILES: CN1CCN(c2ccc(NC3=C(Cl)C(=O)c4ncccc4C3=O)cc2C(F)(F)F)CC1
- GI50 [1]: 0.746 µM
- TGI [1]: 2.69 µM

SMILES: Cn1cc(/C=N/Nc2ccnc3cc(Cl)ccc23)c2ccccc21
- GI50 [2]: 0.181 µM
- TGI [2]: 0.342 µM
- GI50 [3]: 1.3 µM
- TGI [3]: 2.65 µM
- GI50 [4]: 1.21 µM
- TGI [4]: 2.52 µM
- GI50 [5]: 1.72 µM
- TGI [5]: 3.59 µM
- GI50 [6]: 1.68 µM
- TGI [6]: 3.06 µM
- GI50 [7]: 1.41 µM
- TGI [7]: 2.82 µM
- GI50 [8]: 0.639 µM
- TGI [8]: 2.18 µM
- GI50 [9]: 1.65 µM
- TGI [9]: 3.15 µM
- GI50 [10]: 1.05 µM
- TGI [10]: 2.49 µM
- GI50 [11]: 0.202 µM
- TGI [11]: 0.488 µM
- GI50 [12]: 0.531 µM
- TGI [12]: 1.2 µM
- GI50 [13]: 1.45 µM
- TGI [13]: 2.77 µM
- GI50 [14]: 1.53 µM
- TGI [14]: 3 µM
- GI50 [15]: 1.55 µM
- TGI [15]: 2.97 µM
- GI50 [16]: 1.04 µM
- TGI [16]: 2.48 µM
- GI50 [17]: 1.58 µM
- TGI [17]: 3.02 µM
- GI50 [18]: 1.97 µM
- TGI [18]: 3.5 µM
- GI50 [19]: 1.7 µM
- TGI [19]: 3.09 µM
- GI50 [20]: 1.52 µM
- TGI [20]: 2.92 µM
- GI50 [21]: 2.52 µM
- TGI [21]: 4.04 µM
- GI50 [22]: 1.39 µM
- TGI [22]: 2.9 µM
- GI50 [23]: 1.63 µM
- TGI [23]: 3.29 µM
- GI50 [24]: 0.293 µM
- TGI [24]: 0.823 µM
- GI50 [25]: 1.5 µM
- TGI [25]: 3.25 µM
- GI50 [26]: 0.206 µM
- TGI [26]: 0.468 µM
- GI50 [27]: 1.54 µM
- TGI [27]: 2.97 µM
- GI50 [28]: 1.52 µM
- TGI [28]: 3.13 µM
- GI50 [29]: 1.32 µM
- TGI [29]: 2.75 µM
- GI50 [30]: 0.274 µM
- TGI [30]: 0.717 µM
- GI50 [31]: 0.281 µM
- TGI [31]: 0.799 µM
- GI50 [32]: 1.15 µM
- TGI [32]: 2.67 µM
- GI50 [33]: 1.37 µM
- TGI [33]: 2.67 µM
- GI50 [34]: 0.978 µM
- TGI [34]: 2.4 µM
- GI50 [35]: 1.23 µM
- TGI [35]: 2.53 µM
- GI50 [36]: 0.205 µM
- TGI [36]: 0.466 µM
- GI50 [37]: 1.62 µM
- TGI [37]: 3.11 µM
- GI50 [38]: 0.185 µM
- TGI [38]: 0.338 µM
- GI50 [39]: 1.24 µM
- TGI [39]: 2.52 µM
- GI50 [40]: 0.609 µM
- TGI [40]: 1.91 µM
- GI50 [41]: 1.26 µM
- TGI [41]: 2.58 µM
- GI50 [42]: 1.42 µM
- TGI [42]: 3 µM
- GI50 [43]: 1.6 µM
- TGI [43]: 3.04 µM
- GI50 [44]: 0.175 µM
- TGI [44]: 0.323 µM
- GI50 [45]: 1.48 µM
- TGI [45]: 3.49 µM
- GI50 [46]: 1.21 µM
- TGI [46]: 2.66 µM
- GI50 [1]: 0.239 µM
- TGI [1]: 0.563 µM
- GI50 [47]: 0.669 µM
- TGI [47]: 1.95 µM

SMILES: Cc1ccc2nc(NC(=O)CSC(=S)N3CCN(Cc4ccccc4)CC3)sc2c1
- GI50 [1]: > 100 µM
- TGI [1]: > 100 µM

SMILES: Cc1cc2cc(Oc3ccnc(Nc4cccc(CS(=O)(=O)NCCN(C)C)c4)n3)ccc2[nH]1
- GI50 [1]: 6.49 µM
- TGI [1]: 21.3 µM

SMILES: COc1ccc(-n2nc(C)c3c(Nc4ccc(NC(=O)Nc5cc(C(F)(F)F)ccc5F)cc4)ncnc32)cc1
- GI50 [1]: 2.48 µM
- TGI [1]: 6.14 µM

SMILES: CC(=O)OC1CC(C)c2c1ncnc2N1CCN(C(=O)OC(C)(C)C)CC1 (stereo unspecified)
- GI50 [1]: 33.9 µM
- TGI [1]: > 100 µM

SMILES: CC(C)NCCCNC1=C(Cl)C(=O)c2ccccc2C1=O
- GI50 [1]: 2.85 µM
- TGI [1]: 8.78 µM

SMILES: COc1ccc(CNCCCN2C(=O)c3ccc4c5c(ccc(c35)C2=O)C(=O)N(CCCNCCCCNCCCN)C4=O)c(OC)c1OC
- GI50 [1]: 0.155 µM
- TGI [1]: 0.334 µM

SMILES: CCN(CCc1ccc(F)cc1)c1ccc(CO)c(Cl)c1
- GI50 [1]: 0.217 µM
- TGI [1]: 0.724 µM

SMILES: COc1cc2c(C#N)n3c(c2cc1OC)C(=O)C(c1ccccc1)Oc1ccccc1-3 (stereo unspecified)
- GI50 [1]: 4.68 µM
- TGI [1]: > 100 µM

SMILES: CCCCCn1ncc(-c2c(O)c(O)cc3c(O)c(-c4c(C)cc5c(-c6cnn(CCCCC)n6)c(O)c(O)cc5c4O)c(C)cc23)n1
- GI50 [1]: 0.102 µM
- TGI [1]: 3.76 µM

SMILES: COc1cc(/C=C\c2cc(/C=C\c3ccc(O)c(OC)c3)n(C(=O)Nc3ccc(C(F)(F)F)cc3)n2)ccc1O
- GI50 [1]: 2.3 µM
- TGI [1]: 6.25 µM

SMILES: CCc1nc2cc(/C=C/C(=O)NO)c(F)cc2c(=O)n1CCc1ccccc1
- GI50 [1]: 0.474 µM
- TGI [1]: 2.92 µM

SMILES: CC(=O)O[C@H]1CC[C@]2(C)[C@H]3C(=O)C=C4[C@@H]5C[C@](C)(C(=O)N6CCCNCC6)CC[C@]5(C)CC[C@@]4(C)[C@]3(C)CC[C@H]2C1(C)C
- GI50 [1]: 1.7 µM
- TGI [1]: 3.56 µM

SMILES: CCCCCCCCCCCCCCCC[N+](C)(C)C
- GI50 [1]: 0.118 µM and 0.328 µM
- TGI [1]: 0.361 µM and 1.93 µM

SMILES: C=C(C)[C@@H]1CC[C@]2(c3ncc(C)o3)CC[C@]3(C)[C@H](CC[C@@H]4[C@@](C)(CCC#N)[C@H](C(=C)C)CC[C@]43C)[C@@H]12
- GI50 [1]: 3 µM
- TGI [1]: 12.9 µM

SMILES: Cc1cc(C)c(S(=O)(=O)Oc2ccccc2[N+](=O)[O-])c(C)c1
- GI50 [1]: 1.48 µM
- TGI [1]: 5.62 µM

SMILES: COc1ccccc1NC(=O)N/C(N)=N/c1nc2ccccc2s1
- GI50 [1]: 0.299 µM
- TGI [1]: > 100 µM

SMILES: COc1ncnc2c1ncn2C/C(Br)=C(\Br)CCl
- GI50 [1]: 1.56 µM
- TGI [1]: 3.29 µM

SMILES: N#C/C(=C/c1cccs1)c1cccs1
- GI50 [1]: 24.1 µM
- TGI [1]: > 100 µM

SMILES: C[C@]1(O)CC(=O)[C@]2(O)C3=C(C=C[C@]2(O)C1)C(=O)c1c(O)cccc1C3=O
- GI50 [1]: 1.7 µM
- TGI [1]: 3.87 µM

SMILES: CCCCn1c(=O)c(/C=C/C(=O)/C=C/c2ccc(O)c(OC)c2)cc2ccc(Cl)cc21
- GI50 [1]: 1.46 µM
- TGI [1]: 4.37 µM

SMILES: COc1ccc(/C=C2/CCOC2=O)cc1
- GI50 [1]: > 100 µM
- TGI [1]: > 100 µM

SMILES: CCCCCCCCOC(=O)c1cc(O)c(O)c(O)c1
- GI50 [1]: 3.49 µM
- TGI [1]: 16.7 µM

SMILES: O=c1cc(-c2ccccc2)oc2cc(OCc3cn(Cc4ccc(F)cc4)nn3)cc(O)c12
- GI50 [1]: 20 µM
- TGI [1]: > 100 µM

SMILES: CCOc1ccc2c(-c3ccnc(Nc4cccc(C(F)(F)F)c4)n3)cnn2n1
- GI50 [1]: 1.14 µM
- TGI [1]: > 25 µM

SMILES: COc1cc(C)c(N(C)C(=O)CN(C)C)cc1Nc1nc(Nc2cccc(F)c2C(N)=O)c2cc[nH]c2n1
- GI50 [1]: 14.5 µM
- TGI [1]: > 25 µM

SMILES: CCCN(CCC)c1ccc(C=O)c(OC)c1
- GI50 [1]: 6.22 µM
- TGI [1]: 63 µM

SMILES: COc1ccc(OC)c(-c2cn3nc(-c4c[nH]c5ccc(Br)cc45)sc3n2)c1
- GI50 [1]: 2.94 µM
- TGI [1]: 8.41 µM

SMILES: COc1cccc2c1[C@H](OC)[C@]13O[C@@]1(C2=O)[C@H](O)[C@H](C)[C@@](O)(C(=O)[C@@H]1O[C@H]1C)[C@@H]3O
- GI50 [1]: 0.204 µM
- TGI [1]: 0.48 µM

SMILES: C=C(C)[C@@H]1CC[C@]2(C)[C@H](CC=C3[C@@H]4CC(C)(C)CC[C@]4(C(=O)OC)CC[C@]32C)[C@@]1(C)CC/C(N)=N/O
- GI50 [1]: 1.85 µM
- TGI [1]: 5.06 µM

SMILES: CN1CCN(c2ccc3nc(-c4ccc5nc(-c6ccc(C(F)(F)F)cc6)[nH]c5c4)[nH]c3c2)CC1
- GI50 [1]: 1.85 µM
- TGI [1]: 3.65 µM

SMILES: CCN(CC)CCNc1ccc(CO)c2sc3ccccc3c(=O)c12
- GI50 [1]: 1.25 µM
- TGI [1]: 3.03 µM

SMILES: CC(C)(C)c1ccc(NC(=O)c2cc(=O)c3ccccc3[nH]2)c(C(C)(C)C)c1O
- GI50 [1]: 7.87 µM
- TGI [1]: 21.9 µM
